Results as given in patent US5165931A, “Peptifluorin and neopeptifluorin” (E. R. Squibb & Sons, Inc., priority 1991, dated 1992).

Experiments:
mevalonate kinase = test: inhibition of mevalonate kinase from yeast; assay type: biochemical
bacteria = test: antibacterial activity (general statement); assay type: cell-based
Procedure: (§1) The following methodology was used to determine the minimum inhibitory concentration (hereinafter referred to as MIC) of the compound of this invention against bacteria. The test organisms were grown in 20 ml of Antibiotic Assay Broth (Difco) by inoculating the broth (in tubes) with a loopful of the organism from a BHI (Difco) agar slant. The inoculated tubes were incubated at 37° C. for 18 to 24 hours. These cultures were assumed to contain 10^9 colony forming units (CFU) per ml. The cultures were diluted 1:100 to give a final inoculum level of 10^7 CFU; dilutions were made with Yeast Beef Broth (Difco). The test compound was dissolved in an appropriate diluent at a concentration of 1,000 μg/ml. Two-fold dilutions were made in Yeast Beef Broth (Difco), resulting in
(§2) a range from 1000 μg/ml to 0.5 μg/ml. A 1.5 ml portion of each dilution was placed into individual petri dishes to which 13.5 ml of K-10 agar was added. The composition of K-10 agar is:
The final drug concentration in the agar ranged from 100 μg/ml to 0.05 μg/ml. Organism growth control plates containing agar only were prepared and inoculated before and after the test plates. […]
The plates were incubated at 37° C. for 18 hours and the MICs determined. […]

Candida albicans = test: agar dilution MIC assay, yeasts; assay type: cell-based; settings: 37° C., 36-48 hours
Procedure: as §1, §2
(§3) The final drug concentration in the agar ranged from 100 μg/ml to 0.05 μg/ml. Organism growth control plates containing agar only were prepared and inoculated before and after the test plates. The organisms were applied to the agar surface of each plate with a Denly Multipoint Inoculator (which delivers approximately 0.001 ml of each inoculum) resulting in a final inoculum of 10^4 CFU on the agar surface.
(§4) The plates were incubated at 37° C. for 18 hours and the MICs determined. The MIC is the lowest concentration of compound inhibiting growth of the organism.
(§5) The methodology described above was modified in the assay for activity against yeasts. Fresh F-4 slants of the test organisms were obtained from frozen vials (-70° C.). The cultures were inoculated into tubes of F-4 broth and incubated at 37° C. for 18 to 24 hours, at which time the average cell count was assumed to be 5×10^7 CFU per ml. These were diluted 1:50 with fresh F-4 broth to give an inoculum level of 1×10^6 CFU per mL. The organisms were then dispensed into a sterile template (0.8 ml per well) and delivered onto the surface of each plate containing test compound as described above with a Denly Multipoint Inoculator, resulting in a final inoculum of 10^3 CFU on the agar surface.
(§6) The composition of the F-4 broth is:
(§7) The medium was sterilized at 121° C. for 15 minutes at 15 psi.
(§8) F-4 agar has the same composition as the broth but with the addition of 15 g agar per liter.
(§9) The results of the yeast, agar dilution assays (determined after incubation at 37° C. for 36-48 hours) are: […]

Candida glabrata = test: agar dilution MIC assay, yeasts; assay type: cell-based; settings: strain SC 11,267; 37° C., 36-48 hours
Procedure: as §1, §2, §3, §4, §5, §6, §7, §8, §9

Candida tropicalis = test: agar dilution MIC assay, yeasts; assay type: cell-based; settings: 37° C., 36-48 hours
Procedure: as §1, §2, §3, §4, §5, §6, §7, §8, §9

Candida krusei = test: agar dilution MIC assay, yeasts; assay type: cell-based; settings: strain SC 2967; 37° C., 36-48 hours
Procedure: as §1, §2, §3, §4, §5, §6, §7, §8, §9

Saccharomyces cerevisiae = test: agar dilution MIC assay, yeasts; assay type: cell-based; settings: 37° C., 36-48 hours
Procedure: as §1, §2, §3, §4, §5, §6, §7, §8, §9

yeasts = test: antifungal activity (general statement); assay type: cell-based
Procedure: as §5

Escherichia coli = test: agar dilution MIC assay, bacteria; assay type: cell-based; settings: K-10 agar, 37° C., 18 hours
Procedure: as §1, §2
(§10) The medium was sterilized at 121° C. for 15 minutes at 15 pounds psi.
as §3, §4
(§11) The results of the agar dilution assays with bacteria are: […]

Enterobacter cloacae = test: agar dilution MIC assay, bacteria; assay type: cell-based; settings: strain SC 8236; K-10 agar, 37° C., 18 hours
Procedure: as §1, §2, §10, §3, §4, §11

Staphylococcus aureus = test: agar dilution MIC assay, bacteria; assay type: cell-based; settings: K-10 agar, 37° C., 18 hours
Procedure: as §1, §2, §10, §3, §4, §11

Streptococcus faecalis = test: agar dilution MIC assay, bacteria; assay type: cell-based; settings: strain SC 9011; K-10 agar, 37° C., 18 hours
Procedure: as §1, §2, §10, §3, §4, §11

Klebsiella pneumoniae = test: agar dilution MIC assay, bacteria; assay type: cell-based; settings: K-10 agar, 37° C., 18 hours
Procedure: as §1, §2, §10, §3, §4, §11

Shigella sonnei = test: agar dilution MIC assay, bacteria; assay type: cell-based; settings: strain SC 8449; K-10 agar, 37° C., 18 hours
Procedure: as §1, §2, §10, §3, §4, §11

Micrococcus luteus = test: agar dilution MIC assay, bacteria; assay type: cell-based; settings: strain SC 2495; K-10 agar, 37° C., 18 hours
Procedure: as §1, §2, §10, §3, §4, §11

Streptococcus agalactiae = test: agar dilution MIC assay, bacteria; assay type: cell-based; settings: strain SC 14,008; K-10 agar, 37° C., 18 hours
Procedure: as §1, §2, §10, §3, §4, §11

Salmonella typhosa = test: agar dilution MIC assay, bacteria; assay type: cell-based; settings: strain SC 1195; K-10 agar, 37° C., 18 hours
Procedure: as §1, §2, §10, §3, §4, §11

neopeptifluorin was tested, and the “inhibiting mevalonate kinase from yeast” value (mevalonate kinase) was “moderately active”, the antibacterial activity (bacteria) was “broad spectrum antibacterial activity” and the MIC (Candida albicans; strain SC 5314) was 6.3 µg/mL. The MIC (Candida albicans; strain SC 9177) was 25.0 µg/mL, the MIC (Candida albicans; strain SC 11,422) was 12.5 µg/mL and the MIC (Candida glabrata) was 25.0 µg/mL. It also gave an MIC (Candida tropicalis; strain SC 8159) of 6.3 µg/mL, an MIC (Candida tropicalis; strain SC 9861) of 3.1 µg/mL and an MIC (Candida krusei) of 100 µg/mL. The MIC (Saccharomyces cerevisiae; strain SC 1600) was 6.3 µg/mL, the MIC (Saccharomyces cerevisiae; strain SC 12,955) was 12.5 µg/mL and the MIC (Saccharomyces cerevisiae; strain SGY 1139) was 1.6 µg/mL. For the same substance, the antifungal activity (yeasts) was “antifungal activity”, the MIC (Escherichia coli; strain SC 8294) was 50.0 µg/mL and the MIC (Escherichia coli; strain SC 10,857) was 12.5 µg/mL. For the same substance, the MIC (Escherichia coli; strain SC 10,896) was 12.5 µg/mL, the MIC (Enterobacter cloacae) was 12.5 µg/mL and the MIC (Staphylococcus aureus; strain SC 1276) was 3.1 µg/mL. The MIC (Staphylococcus aureus; strain SC 2399) was 6.3 µg/mL, the MIC (Staphylococcus aureus; strain SC 2400) was 6.3 µg/mL and the MIC (Streptococcus faecalis) was 6.3 µg/mL. It also gave an MIC (Klebsiella pneumoniae; strain SC 9527) greater than 100 µg/mL, an MIC (Klebsiella pneumoniae; strain SC 10,440) of 25.0 µg/mL and an MIC (Shigella sonnei) of 25 µg/mL. It also gave an MIC (Micrococcus luteus) of 6.3 µg/mL, an MIC (Streptococcus agalactiae) of 6.3 µg/mL and an MIC (Salmonella typhosa) of 100 µg/mL.

In the case of peptifluorin, the “inhibiting mevalonate kinase from yeast” value (mevalonate kinase) is reported as “moderately active”, the antibacterial activity (bacteria) is reported as “broad spectrum antibacterial activity” and the MIC (Candida albicans; strain SC 5314) is reported as 12.5 µg/mL. The MIC (Candida albicans; strain SC 9177) was 25.0 µg/mL, the MIC (Candida albicans; strain SC 11,422) was 12.5 µg/mL and the MIC (Candida glabrata) was 12.5 µg/mL. For the same substance, the MIC (Candida tropicalis; strain SC 8159) was 12.5 µg/mL, the MIC (Candida tropicalis; strain SC 9861) was 3.1 µg/mL and the MIC (Candida krusei) was 100 µg/mL. It also gave an MIC (Saccharomyces cerevisiae; strain SC 1600) of 12.5 µg/mL, an MIC (Saccharomyces cerevisiae; strain SC 12,955) of 25.0 µg/mL and an MIC (Saccharomyces cerevisiae; strain SGY 1139) of 3.1 µg/mL. For the same substance, the antifungal activity (yeasts) was “antifungal activity”, the MIC (Escherichia coli; strain SC 8294) was greater than 100.0 µg/mL and the MIC (Escherichia coli; strain SC 10,857) was 50.0 µg/mL. The MIC (Escherichia coli; strain SC 10,896) was 12.5 µg/mL, the MIC (Enterobacter cloacae) was 25.0 µg/mL and the MIC (Staphylococcus aureus; strain SC 1276) was 6.3 µg/mL. It also gave an MIC (Staphylococcus aureus; strain SC 2399) of 6.3 µg/mL, an MIC (Staphylococcus aureus; strain SC 2400) of 6.3 µg/mL and an MIC (Streptococcus faecalis) of 6.3 µg/mL. For the same substance, the MIC (Klebsiella pneumoniae; strain SC 9527) was greater than 100.0 µg/mL, the MIC (Klebsiella pneumoniae; strain SC 10,440) was 50.0 µg/mL and the MIC (Shigella sonnei) was 25.0 µg/mL. The MIC (Micrococcus luteus) was 6.3 µg/mL and the MIC (Salmonella typhosa) was greater than 100.0 µg/mL.
